Values quoted from earlier work as cited in paper PMC10952301, “Solid‐Phase Synthesis and Biological Evaluation of Peptides ADP‐Ribosylated at Histidine” (Angewandte Chemie (International Ed. in English), 2023).

Settings: quoted without reference to compare leaving group capacity

In the case of c1c[nH]nn1 [1,2,3‐triazole], the pKa is listed as 9.4.
